Key:
[1] = Hydrolytic degradation in acidic aqueous buffer; format: physicochemical; settings: kept for 6 to 18 hours in an aqueous buffer solution having a pH value between 3 and 4
Description: Antibiotics GE37468B and GE37468C seem to derive from antibiotic GE37468A via hydrolytic degradation. […] The physico-chemical characteristics of these two products are as follows: […]

[2] = tested on: gram positive bacteria and gram positive as well as gram negative anaerobes; experiment: Minimal inhibitory concentrations (MIC) by broth microdilution, in vitro antimicrobial activity; format: cell-based; settings: summary in words of the in vitro spectrum; the MIC values of Table IV are printed only as an image
[3] = tested on: Staphylococcus aureus Smith; experiment: Experimental septicemia in mice; format: in vivo, CD1 mice; settings: iv, 168 h, mice infected intraperitoneally with 10^6 CFU/mouse S. aureus Smith, compound given intravenously once immediately after infection, Spearman and Kaerber method from survival at day 7
Protocol: The antimicrobial activity of antibiotic GE37468A was also confirmed in experimental septicemia in mice.
Groups of five CD1 mice of both sexes (Charles River, average weight 18-22 g) were infected intraperitoneally with 10^6 CFU/mouse of Staphylococcus aureus Smith suspended in 0.5 ml of 5% bacteriological mucin (Difco). The test compound was administered intravenously once, immediately after infection, in a sterile solution containing 10% dimethylsulfoxide, 10% Cremophor EL®, 20% 0.07 M phosphate buffer (pH 8), 60% glucose solution (5%).

Compound | stability in aqueous buffer solution (hydrolytic degradation) [1] | antimicrobial activity [2] | ED50 [3] [mg/kg]
C=C(NC(=O)C(=C)NC(=O)c1csc(-c2ccc3c(n2)-c2csc(n2)-c2csc(n2)C2C(C)CC(O)N2C(=O)C(Cc2ccc(O)cc2)NC(=O)C2CSC(=N2)C(Cc2ccccc2)NC(=O)c2csc(n2)C(CC(N)=O)NC(=O)c2nc-3oc2C)n1)C(=O)O (centres unmarked) [GE37468A] | yields substantial amounts of both antibiotic GE37468B and GE37468C | mainly active against gram positive bacteria and gram positive as well as gram negative anaerobes | 3.2
Cc1oc2nc1C(=O)NC(CC(N)=O)c1nc(cs1)C(=O)NC(Cc1ccccc1)C1=NC(CS1)C(=O)NC(Cc1ccc(O)cc1)C(=O)N1C(O)CC(C)C1c1nc(cs1)-c1nc(cs1)-c1nc(-c3nc(C(N)=O)cs3)ccc1-2 (centres unmarked) [GE37468B] | – | mainly active against gram positive bacteria and gram positive as well as gram negative anaerobes | –
C=C(NC(=O)c1csc(-c2ccc3c(n2)-c2csc(n2)-c2csc(n2)C2C(C)CC(O)N2C(=O)C(Cc2ccc(O)cc2)NC(=O)C2CSC(=N2)C(Cc2ccccc2)NC(=O)c2csc(n2)C(CC(N)=O)NC(=O)c2nc-3oc2C)n1)C(N)=O (centres unmarked) [GE37468C] | – | mainly active against gram positive bacteria and gram positive as well as gram negative anaerobes | –

Reference: patent EP0675900B1, “ANTIBIOTICS GE 37468 A, B AND C” (Biosearch Italia S.p.A., priority 1992, dated 1994)
